What all share (experiment): DTP human tumour cell line panel, 48 h
Experiment [1] deals with M14 melanoma.
In experiment [2] the test system is UO-31 renal.
Experiment [3] has as its system HCT-116 colon.
Experiment [4] concerns MALME-3M melanoma.
The subject of experiment [5] is SR leukemia.
The test system of experiment [6] is MDA-MB-435.
Experiment [7] relates to SF-539 CNS.
For experiment [8], the system named is SNB-75 CNS.
Experiment [9] deals with UACC-257 melanoma.
The subject of experiment [10] is SW-620 colon.

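Method: 48-hour compound exposure of cells in 96-well plates, five concentrations, linear interpolation of endpoints. GI50 is the concentration that inhibits growth by half. TGI: concentration producing complete growth inhibition.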

A word on the GI50: it is the concentration at which growth is held to half of that of the control. Usually TGI stands for the concentration at which net growth stops.

On to `C#Cc1cccc(Nc2ncnc3ccc(OCCCCNCCS(C)(=O)=O)cc23)c1`, for which the GI50 in [1] is 5.11 µM; in experiment [2] it was 3.31 µM; in [3] it was 6.81 µM; in [4] it was 4.88 µM; in [5], 6.55 µM; in [6] it was 5.37 µM. In addition, the GI50 in experiment [7] is 4.49 µM; in [8], 10.7 µM; in experiment [9], 4.39 µM; in experiment [10], 9.43 µM. For the same compound, the TGI in experiment [1] is 9.66 µM; in [2] it was over 15.4 µM; in experiment [3], over 18.7 µM; in experiment [4], 9.47 µM; in experiment [5] it was 15.3 µM; in [6] it was 12.5 µM. In addition, the TGI in experiment [7] was 8.72 µM; in experiment [8], over 25 µM; in [9], 8.38 µM; in experiment [10] it was over 25 µM.
For `CC1=C(C)C(=O)O[C@@H]([C@](C)(O)[C@]2(O)CC[C@@]3(O)[C@@H]4C[C@H](O)[C@]5(O)[C@@H](O)C=CC(=O)[C@]5(C)[C@H]4CC[C@]23C)C1`, the concentration for total growth inhibition (TGI) in experiment [1] was over 100 µM; in experiment [2], over 100 µM; in experiment [3] it was over 100 µM; in [4], over 100 µM; in [5] it was 84.3 µM; in [6], over 100 µM. Moreover, the TGI in [7], in [8], in experiment [9] and in experiment [10] was over 100 µM throughout.
As to `COc1ccc(NC2=C(I)C(=O)c3ncccc3C2=O)cc1`, the GI50 is 1.29 µM in experiment [1]; 0.85 µM in experiment [2]; 0.494 µM in [3]; 1.19 µM in [4]; 0.546 µM in experiment [5]; 0.253 µM in experiment [6]. In addition, the GI50 in [7] is 1.41 µM; in experiment [8], 1.4 µM; in experiment [9], 1.35 µM; in experiment [10], 1.13 µM. Also, the TGI in experiment [1] worked out at 2.9 µM; in experiment [2], 2.21 µM; in [3] it was 2.51 µM; in experiment [4] it was 2.44 µM; in experiment [5], 9.61 µM; in experiment [6], 0.628 µM. In addition, the TGI in [7] was determined as 2.75 µM; in experiment [8], 2.77 µM; in experiment [9] it was 2.72 µM; in experiment [10], 3.06 µM.
For the compound `O=C(c1ccc(C(F)(F)F)c(Cl)c1)N(Cc1ccc(Cl)cc1)c1ccc(-c2cc(C(F)(F)F)[nH]n2)c(O)c1`, the GI50 is 1.01 µM in [1]; 0.717 µM in [2]; 0.705 µM in experiment [3]; 0.941 µM in [4]; 0.983 µM in [5]; 1.25 µM in experiment [6]. Also, the GI50 in [7] is 0.994 µM; in experiment [8] it was 0.989 µM; in [9], 1.04 µM; in [10], 0.958 µM. The concentration for total growth inhibition (TGI) in experiment [1] was determined as 2.43 µM; in experiment [2], 1.65 µM; in experiment [3], 1.58 µM; in experiment [4], 2.36 µM; in experiment [5], 2.87 µM; in experiment [6], 3.66 µM. Further, the TGI amounted to 2.09 µM in experiment [7], 3.24 µM in experiment [8], 3.57 µM in experiment [9] and 2.4 µM in experiment [10].
As for `COc1ccc(C2CC(c3ccc(Nc4ccnc5cc(Cl)ccc45)cc3)=NN2C=O)cc1` (stereo not given), the GI50 in [1] was 7.67 µM; in experiment [2], 19.7 µM; in [3], 9.97 µM; in experiment [4], over 100 µM; in [5] it was 2.83 µM; in [6] it was 1.72 µM. The GI50 in experiment [7] is over 100 µM; in experiment [8] it was over 100 µM; in experiment [9], 43.9 µM; in experiment [10], 35.8 µM. For the same compound, the TGI in experiment [1] is over 100 µM; in [2], over 100 µM; in experiment [3] it was over 100 µM; in [4], over 100 µM; in experiment [5], 6.64 µM; in [6], 5.22 µM. Also, the TGI in [7], in experiment [8], in [9] and in [10] was over 100 µM in each case.
Turning to `COc1ccc2c3c1OC1C(OC)(OC)C=C[C@@]4(Br)[C@@H](C2)N(CC2CC2)CC[C@]314` (stereo not given in full), the TGI in experiment [1], in [2], in [3], in experiment [4], in experiment [5] and in [6] was over 100 µM each time. The TGI in experiment [7], in experiment [8], in [9] and in experiment [10] was over 100 µM each time.
Consider `COC(=O)c1ccc(/C=C(\c2ccc([N+](=O)[O-])o2)S(=O)(=O)c2ccc(NC(C)=O)cc2)o1`, for which the TGI in [1] was determined as 15.4 µM; in [2], 18.2 µM; in experiment [3], 8.39 µM; in experiment [4], 8.91 µM; in experiment [5] it was 4.32 µM; in experiment [6] it was 12.8 µM. Also, the TGI in [7] amounted to 15.2 µM; in experiment [8], 36.2 µM; in experiment [9], 4.54 µM; in [10] it was 11.8 µM.

Values taken from PubChem BioAssay (NCI).
